Structures can show the parent of a compound that is named as a salt. Where two headings read alike, the source gives them in different places.
Key:
[1] = Example 1: clinical safety of single inhaled doses in healthy adults; format: in vivo, human
Method: In a controlled clinical environment, 38 healthy adults received single doses of either 0.9% saline solution as placebo or up to 750 mg of ASA by inhalation (placebo n=10, ASA n=28).

[2] = system: influenza virus infection; details: for Time to alleviation of clinical influenza symptoms (T1), Mean: 800 mg LASAG (400 mg ASA) inhaled three times daily
[3] = in vivo

For `CC(=O)Oc1ccccc1C(=O)O` [ASA, acetylsalicylic acid], the “Serious events or severe adverse effects” value ([1]; single inhaled doses up to 750 mg ASA) was “no serious events or severe adverse effects were observed”, the “Tolerability of administered doses” value ([1]; single inhaled doses up to 750 mg ASA as LASAG solution about 200 mg/ml, AKITA Apixneb) was “overall well tolerated” and the “Effect on pulmonary function tests parameters” value ([1]; single inhaled doses up to 750 mg ASA, higher doses) was “no effect on pulmonary function tests parameters”.
In the case of `CC(=O)Oc1ccccc1C(=O)O` [LASAG, D,L-lysine acetylsalicylate glycine salt], the “Time to alleviation of clinical influenza symptoms (T1), Max.” value ([2]; CSS ≥14, per protocol set) is reported as 67.4 h, the “Time to alleviation of clinical influenza symptoms (T1), Min.” value ([2]; CSS ≥14, per protocol set) is reported as 9.8 h and the “Time to alleviation of clinical influenza symptoms (T1), Q1” value ([2]; CSS ≥14, per protocol set) is reported as 23.5 h. For the same compound, the “Time to alleviation of clinical influenza symptoms (T1), Q3” value ([2]; CSS ≥14, per protocol set) was 52.4 h, the “Time to alleviation of clinical influenza symptoms (T1), Mean” value ([2]; CSS ≥14, per protocol set) was 38.3 h and the “Time to alleviation of clinical influenza symptoms (T1), Median” value ([2]; CSS ≥14, per protocol set, 800 mg LASAG inhaled three times daily) was 27.8 h. The “Time to alleviation of clinical influenza symptoms (T1), Max.” value ([2]; CSS ≥17, per protocol set) was 66.9 h, the “Time to alleviation of clinical influenza symptoms (T1), Median” value ([2]; CSS ≥17, per protocol set) was 47.0 h and the “Time to alleviation of clinical influenza symptoms (T1), Min.” value ([2]; CSS ≥17, per protocol set) was 23.5 h. For the same compound, the “Time to alleviation of clinical influenza symptoms (T1), Q1” value ([2]; CSS ≥17, per protocol set) was 27.8 h, the “Time to alleviation of clinical influenza symptoms (T1), Q3” value ([2]; CSS ≥17, per protocol set) was 62.1 h and the “Time to alleviation of clinical influenza symptoms (T1), Mean” value ([2]; CSS ≥17, per protocol set) was 44.7 h. The “Time to alleviation of influenza symptoms T1” value ([2]; first patient group with CSS (log rank p 0.0313), placebo 51.6 h) was 38.3 h, the “Difference to placebo in time required for alleviation of clinical influenza symptoms” value ([2]; human, in vivo) was “no significant difference” and the “Recovery by baseline corrected daily activity score (DAS)” value ([2]; human, in vivo) was “better recovery than the placebo group”. The “Number of inhalations after which patients were alleviated” value ([2]; patients with CSS, assuming start with the morning inhalation, placebo about 9) was “about 6 inhalations”, the “Time to alleviation of influenza symptoms T1” value ([2]; second patient group with CSS (log rank p 0.0152), placebo 71.5 h) was 44.7 h and the “Number of adverse events (AE)” value ([3]; human) was 41. For the same compound, the “Number of patients affected by AE” value ([3]; human) was 23, the “Required medication due to AEs” value ([3]; human) was “About 56.1%” and the “Share of all adverse events (AE)” value ([3]; human) was 49.4%. For the same compound, the “Share of group patients affected by AE” value ([3]; human) was 41.1%, the “Death or other significant adverse events” value [3] was “no case of death or other significant adverse events” and the “Difference to placebo with regard to tolerability” value [3] was “no significant differences”.
